Results taken from patent US4413009A, “N-((Alkylamino)carbonyl)-N-(((alkylamino)carbonyl)oxy)acylamides with antineoplastic activity” (priority 1982, dated 1983).

Legend:
[1] = tested on: HeLa cells; test: HeLa cell colony cytotoxicity / growth inhibition test; assay type: cell-based, human; settings: 8 days, 0-50 μg/ml
Method: HeLa cells were seeded in 24-well tissue culture plates at a concentration of 30 cells per well in 1 ml of growth medium (Eagle's minimum essential medium with 5 percent HIFCS). The plates were incubated at 36° C. for 24 hours after which the growth medium was removed. The cells were resuspended in 1 ml of fresh growth medium described above together with a measured quantity of (0-50 μg/ml) of one of the compounds of this invention. The 0 μg/ml concentration served as a control. The tissue culture plates were then incubated at 36° C. for 8 days at which time the medium was removed and the cells were fixed and stained with 0.1% crystal violet in 20% ethanol. The HeLa cell colonies were counted macroscopically, and comparisons of colony size in treated and control wells were made. Test compounds were considered cytotoxic at concentrations which reduced the number of HeLa cell colonies compared to control by 50% or more. Test compounds of the invention were considered to cause HeLa cell growth inhibition at concentrations which reduced the size of colonies by a measurable amount when compared to control.

[2] = tested on: P388 leukemia; test: Antineoplastic activity against P388 lymphocytic leukemia in mice (IP), survival time and toxicity day survivors; assay type: in vivo, mice (CDF1); settings: for Toxicity Day Survivors: survivors/started
Method: (A) Test mice (CDF1 mice) were injected intraperitoneally (IP) with ascitic fluid containing 10^6 cells of P388 lymphocytic leukemia. The test compound was administered in a sialine -Tween 80 carrier at the appropriate dosage, IP daily for 9 days; the initial treatment performed the first day after tumor inoculation. Control mice received no compound.

[3] = tested on: MX-1 human breast xenograft; test: Activity against MX-1 human breast xenograft in subrenal capsule of athymic mice, tumor size change and toxicity day survivors; assay type: in vivo, human (xenograft in athymic Swiss Nu/Nu mice); settings: survivors/started
Method: (B) A tumor fragment (MX-1 human breast xenograft) having a diameter of between 9 and 12 ocular micrometer units (OMU) (approximately 1×1×1 millimeter) was implanted and measured in situ in the subrenal capsule of athymic Swiss (Nu/Nu Swiss) mice. The appropriate dosage of the test compound in a saline carrier was administered by subcutaneous injection once daily for 10 days; the initial treatment was performed on the first day after tumor implant. No test compound was administered to the control mice. Test mice were sacrificed on the eleventh day and tumor size noted. The change in tumor diameter (from day 0 (implant day) to day 11 (sacrifice day)) as compared with the tumor size of the control was used as an evaluation of tumor growth or regression.

[4] = Experiment No. 1, 50.00 mg/kg per injection IP daily for 9 days
[5] = Experiment No. 2, 12.50 mg/kg per injection IP daily for 9 days
[6] = Experiment No. 2, 25.00 mg/kg per injection IP daily for 9 days
[7] = Experiment No. 2, 50.00 mg/kg per injection IP daily for 9 days

**Q.** Which “Cell Growth Inhibition: concentration at which the size of the HeLa colonies were reduced by a measurable amount (as compared to control)” value [1] does the source give for `CNC(=O)ON(C(C)=O)C(=O)NC` [Example 1, N-((Methylamino)carbonyl)-N-(((methylamino)carbonyl)oxy)acetamide] here?
**A.** The value was 12.5 µg/mL.

**Q.** What about the “median survival time of the test animals (in words)” value ([2]; 50 mg/kg per injection, one experiment) of the same molecule?
**A.** Its value is “increased the median survival time”.

**Q.** And the “median survival time of the test animals (in words)” value ([2]; 12.50, 25 and 50 mg/kg per injection, another experiment)?
**A.** Its value is “increased the median survival time”.

**Q.** And the “T/C % (median survival time, treated vs control)” value [2, 4]?
**A.** Its value is 142%.

**Q.** What about the “Toxicity Day Survivors” value [2, 4] of the same molecule?
**A.** The value was 06/06.

**Q.** What about the “Toxicity Day Survivors” value ([2]; Experiment No. 1, 100.00 mg/kg per injection IP daily for 9 days) of the same molecule?
**A.** The value was 01/06.

**Q.** And the “Toxicity Day Survivors” value ([2]; Experiment No. 1, 200.00 mg/kg per injection IP daily for 9 days)?
**A.** The value was 00/06.

**Q.** And the “T/C % (median survival time, treated vs control)” value [2, 5]?
**A.** Its value is 131%.

**Q.** And the “Toxicity Day Survivors” value [2, 5]?
**A.** Its value is 06/06.

**Q.** And the “T/C % (median survival time, treated vs control)” value [2, 6]?
**A.** Its value is 126%.

**Q.** What about the “Toxicity Day Survivors” value [2, 6] of the same molecule?
**A.** The value was 06/06.

**Q.** And the “T/C % (median survival time, treated vs control)” value [2, 7]?
**A.** The value was 141%.

**Q.** What about the “Toxicity Day Survivors” value [2, 7] of the same molecule?
**A.** Its value is 06/06.

**Q.** What about the “Toxicity Day Survivors” value ([2]; Experiment No. 2, 100.00 mg/kg per injection IP daily for 9 days) of the same molecule?
**A.** Its value is 03/06.

**Q.** What about the “median survival time of the test mice afflicted with P388 leukemia (in words)” value ([2]; Table 3 data) of the same molecule?
**A.** The value was “increased the median survival time”.

**Q.** What about the “Toxicity Day Survivors” value ([3]; Experiment 1, 12.5 mg/kg s.c. daily for 10 days) of the same molecule?
**A.** The value was 03/03.

**Q.** What about the “Toxicity Day Survivors” value ([3]; Experiment 1, 25 mg/kg s.c. daily for 10 days) of the same molecule?
**A.** Its value is 03/03.

**Q.** And the “Toxicity Day Survivors” value ([3]; Experiment 1, 50 mg/kg s.c. daily for 10 days)?
**A.** Its value is 03/03.

**Q.** What about the “Toxicity Day Survivors” value ([3]; Experiment 1, 100 mg/kg s.c. daily for 10 days) of the same molecule?
**A.** The value was 01/03.

**Q.** What about the “Toxicity Day Survivors” value ([3]; Experiment 2, 25 mg/kg s.c. daily for 10 days) of the same molecule?
**A.** The value was 06/06.

**Q.** What about the “Toxicity Day Survivors” value ([3]; Experiment 2, 50 mg/kg s.c. daily for 10 days) of the same molecule?
**A.** Its value is 06/06.

**Q.** What about the “Toxicity Day Survivors” value ([3]; Experiment 2, 100 mg/kg s.c. daily for 10 days) of the same molecule?
**A.** Its value is 06/06.

**Q.** And the “Toxicity Day Survivors” value ([3]; Experiment 2, 200 mg/kg s.c. daily for 10 days)?
**A.** The value was 05/06.

**Q.** What about the “Toxicity Day Survivors” value ([3]; Experiment 3, 25 mg/kg s.c. daily for 10 days) of the same molecule?
**A.** Its value is 06/06.

**Q.** And the “Toxicity Day Survivors” value ([3]; Experiment 3, 50 mg/kg s.c. daily for 10 days)?
**A.** Its value is 06/06.

**Q.** What about the “Toxicity Day Survivors” value ([3]; Experiment 3, 100 mg/kg s.c. daily for 10 days) of the same molecule?
**A.** The value was 06/06.

**Q.** And the “Toxicity Day Survivors” value ([3]; Experiment 3, 200 mg/kg s.c. daily for 10 days)?
**A.** Its value is 00/06.

**Q.** What about the “Toxicity Day Survivors” value ([3]; Experiment 4, 25 mg/kg s.c. daily for 10 days) of the same molecule?
**A.** Its value is 03/03.

**Q.** And the “Toxicity Day Survivors” value ([3]; Experiment 4, 50 mg/kg s.c. daily for 10 days)?
**A.** Its value is 02/02.

**Q.** And the “Toxicity Day Survivors” value ([3]; Experiment 4, 100 mg/kg s.c. daily for 10 days)?
**A.** Its value is 03/03.

**Q.** What about the “Toxicity Day Survivors” value ([3]; Experiment 4, 200 mg/kg s.c. daily for 10 days) of the same molecule?
**A.** Its value is 01/03.

**Q.** `CCNC(=O)ON(C(C)=O)C(=O)NCC` [Example 2, N-((Ethylamino)carbonyl)-N-(((ethylamino)-carbonyl)oxy)acetamide] was tested. Which “Cell Growth Inhibition: concentration at which the size of the HeLa colonies were reduced by a measurable amount (as compared to control)” value [1] did it give?
**A.** The value was 12.5 µg/mL.

**Q.** How did the “Cell Growth Inhibition: concentration at which the size of the HeLa colonies were reduced by a measurable amount (as compared to control)” value [1] turn out when `CCCNC(=O)ON(C(=O)NCCC)C(=O)c1ccccc1` [Example 17, N-((Propylamino)carbonyl)-N-(((propylamino)-carbonyl)oxy)benzamide] was run?
**A.** Its value is 12.5 µg/mL.

**Q.** `O=C(NC1CCCCC1)ON(C(=O)NC1CCCCC1)C(=O)C1CC1` [Example 29, N-((Cyclohexylamino)carbonyl)-N-(((cyclohexylamino)carbonyl)oxy)cyclopropanecarboxamide] was tested. Which “Cell Growth Inhibition: concentration at which the size of the HeLa colonies were reduced by a measurable amount (as compared to control)” value [1] did it give?
**A.** The value was 12.5 µg/mL.
